Results published in PMC7308271, “Discovery of a new class of orthosteric antagonists with nanomolar potency at extrasynaptic GABAA receptors” (Scientific Reports, 2020).

Tests used:
[1] = biological target: T1, human α4β1δ receptors in δ-HEK cells (Homo sapiens, UniProt P18505+P48169); experiment: Whole-cell patch-clamp electrophysiology, kinetic studies of GABA activation after 018 pre-application; format: cell-based
T1 construct: expressed in transfected cells; host or cells: δ-HEK (HEK293 Flp-In stably expressing human δ), transiently transfected with α4 and β1 1:1
T1 sequence (P48169 36-554): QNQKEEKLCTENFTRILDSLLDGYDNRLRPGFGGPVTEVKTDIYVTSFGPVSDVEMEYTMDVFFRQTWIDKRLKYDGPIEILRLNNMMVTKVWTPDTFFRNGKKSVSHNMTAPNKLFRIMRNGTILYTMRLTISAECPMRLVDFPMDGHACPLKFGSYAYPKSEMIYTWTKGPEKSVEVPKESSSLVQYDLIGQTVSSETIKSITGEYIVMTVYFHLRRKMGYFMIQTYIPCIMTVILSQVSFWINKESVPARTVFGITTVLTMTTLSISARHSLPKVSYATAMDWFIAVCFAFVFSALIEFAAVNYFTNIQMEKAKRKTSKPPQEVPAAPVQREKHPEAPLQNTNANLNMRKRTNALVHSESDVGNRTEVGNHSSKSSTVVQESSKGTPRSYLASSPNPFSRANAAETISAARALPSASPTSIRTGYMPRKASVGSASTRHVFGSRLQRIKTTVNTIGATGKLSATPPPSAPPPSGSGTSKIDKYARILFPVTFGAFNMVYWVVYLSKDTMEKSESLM
T1 sequence (P18505 26-474): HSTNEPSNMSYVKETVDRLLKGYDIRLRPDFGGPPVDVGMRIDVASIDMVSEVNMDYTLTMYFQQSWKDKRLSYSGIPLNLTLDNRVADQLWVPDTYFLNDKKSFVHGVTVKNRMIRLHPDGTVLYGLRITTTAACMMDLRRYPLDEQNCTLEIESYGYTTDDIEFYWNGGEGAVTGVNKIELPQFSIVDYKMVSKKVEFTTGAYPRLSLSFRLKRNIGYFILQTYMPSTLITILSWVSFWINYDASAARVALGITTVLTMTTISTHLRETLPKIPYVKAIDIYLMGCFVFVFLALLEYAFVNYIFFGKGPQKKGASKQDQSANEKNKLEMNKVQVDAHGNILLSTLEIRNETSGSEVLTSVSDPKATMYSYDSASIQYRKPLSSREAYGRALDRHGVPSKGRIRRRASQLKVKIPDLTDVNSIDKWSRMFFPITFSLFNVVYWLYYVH
T1 sequence (O14764 25-452 partner): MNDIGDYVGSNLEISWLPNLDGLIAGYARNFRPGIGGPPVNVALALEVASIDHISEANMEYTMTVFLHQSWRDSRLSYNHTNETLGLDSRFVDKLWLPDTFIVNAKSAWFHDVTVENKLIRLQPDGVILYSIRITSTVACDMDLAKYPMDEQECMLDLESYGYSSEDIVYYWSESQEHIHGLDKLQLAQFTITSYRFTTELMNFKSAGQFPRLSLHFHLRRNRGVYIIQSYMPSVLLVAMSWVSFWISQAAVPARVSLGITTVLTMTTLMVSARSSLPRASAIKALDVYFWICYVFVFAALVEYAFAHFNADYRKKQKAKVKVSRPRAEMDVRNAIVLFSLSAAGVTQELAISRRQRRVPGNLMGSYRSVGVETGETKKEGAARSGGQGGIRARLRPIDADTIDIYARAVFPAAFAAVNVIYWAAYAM
Procedure: δ-HEK cells transiently expressing human α4β1δ receptors were seeded in 35 mm Petri dishes the day before experiment and used for recordings in a similar was as previously reported. On the day of experiment the dishes were transferred to the stage of an Axiovert 10 microscope (Zeiss, Germany), and the culture medium was exchanged for artificial balanced salt solution (ABBS) at room temperature (20−24 °C). The ABSS solution contained the following (in mM): NaCl 140, KCl 3.5, Na2HPO4 1.25, MgSO4 2, CaCl2 2, glucose 10, and HEPES 10; pH 7.35. The cells were viewed at 200× magnification, and cells containing green fluorescent protein were visualized with UV light from an HBO 50 lamp (Zeiss, Germany). The cells were approached with micropipettes of 1.2−3.3 MΩ resistance manufactured from 1.5 mm OD glass (World Precision Instruments, Sarasota, Florida) on a microelectrode puller, model PP-830 (Narishige, Tokyo, Japan). The intrapipette solution contained the following (in mM): KCl 140, MgCl2 1, CaCl2 1, EGTA 10, MgATP 2, and HEPES 10; pH 7.3. Standard patch-clamp techniques in voltage clamp mode[44] were used to record from cells in the whole-cell configuration using an EPC-9 amplifier (HEKA, Lambrecht, Germany). A clamping potential of −60 mV was used, and series resistance was 80% compensated. Whole-cell currents were recorded and subsequently analyzed using Pulse and PulseFit software (HEKA, Lambrecht, Germany).
ABSS solution containing the compounds were applied using two VC3–8xP pressurized application systems feeding into a sixteen-barreled perfusion pipette (ALA Scientific Instruments Inc., Farmingdale New York, USA) ending approximately 100 μm from the recorded cell. Between the compound applications, compound-free ABSS was applied from one of the barrels in order to quickly remove the compounds from the cell. […] The cells were left to recover for 1 min before the next application.
Current relaxations were fitted to a single or biexponential equation using a Simplex optimization algorithm (PulseFit; HEKA, Lambrecht, Germany). I(t)=I0+I1exp−t/τ1+I2exp−t/τ2
With I denoting the currents at a time t and τ1 and τ2 the time constants. All curve-fitting results were carefully inspected visually. In some cases, the current relaxations were fitted to both a mono- and a biexponential function and an F-test was applied to the residual sum of squares to determine the appropriateness of using a second component: F=(SSA−SSB)dfB/SSB(dfA−dfB)=(RMSA2−RMSB2)dfB/RMSB2(dfA−dfB) where SS and RMS are the sum of squares and root mean square deviation between fit and data, respectively. A and B refer to the single and biexponential fit, respectively. df represents the degree of freedom for each fit. Time constants were given as medians followed by the 25–75% percentile in square brackets.

[2] = tested on: MDR1 (P-glycoprotein), human; experiment: Bidirectional membrane permeability in MDR1-MDCK cells; format: in vitro ADME, canine; details: dog, triplicate, read-out: basal to apical permeability
Procedure: (§1) Bidirectional permeability was tested for 018 and 2027 in the Madin-Darby canine kidney (MDCK) cell line expressing human multidrug resistance protein (MDR1, P-glycoprotein) (referred to as MDR1-MDCK cells) as described previously. To calculate efflux ratio the permeability in the basal-to-apical direction was divided by the permeability in the apical-to-basal direction. The obtained data is from triplicate measurements.

MDR1 (P-glycoprotein) = experiment: as above; format: in vitro ADME, canine; details: dog, both before and after
Procedure: as §1

[3] = biological target: [^3H]muscimol binding (GABAΑ receptors) in rat brain cortical homogenate; experiment: [3H]muscimol radioligand binding in rat cortical homogenate; details: for Ki: 5 nM [^3H]muscimol, n = 4; for pKi ± SEM: [^3H]muscimol
Procedure: The binding studies were performed using rat brain homogenate prepared from the cortex of adult Sprague-Dawley male rats (250–350 g) obtained from commercial breeders (Janvier Laboratories, Le Genest-Saint-Isle, France), housed and cared for according to the Danish legislation regulating animal experiments and the European Communities Council Directive (2010/63/EU). Homogenate preparation was performed as described earlier. On the day of assay, membranes stored at −20 °C was quickly thawed followed by addition of 40 volumes of ice-cold binding buffer (50 mM TRIS-HCl buffer; pH 7.4) and homogenization using and UltraTurrax homogenizer before being centrifuged at 48,000 ×g for 10 minutes at 4 °C. This washing procedure was repeated 4 times before the final pellet was suspended in the binding buffer to final concentration of approximately 0.5 mg/mL protein.
The radioligand binding assay was performed using [^3H]muscimol in a 96-well format. [^3H]muscimol (5 nM) was incubated with 75 μg/well protein with or without test compound or control at 0 °C for 1 hour in a total volume of 200 μL binding buffer in triplicates. […] After incubation, the binding reaction was terminated by rapid filtration through GF/C unifilters (PerkinElmer) with the use of a 96-well Packard FilterMate cell harvester (PerkinElmer), followed by 3 times washing in 250 μL ice-cold binding buffer. After drying at 65 °C, microscintillation fluid was added to the dried filters and the radioactivity bound to the filter was quantified in a Packard TopCounter microplate scintillation counter. The obtained binding data was converted into specific binding (% of control) for each data point and fitted to the one-site competition model by […] (GraphPad Prism, version 8.2.1). The fitted IC50 values were converted into Ki values by means of the Cheng-Prusoff equation[46]. Data are from three independent experiments, performed with three technical replicates and Ki values are given as pKi ± SEM.

[4] = 100 μM GABA, 3 nM 018, biexponential fit
[5] = 100 μM GABA, 10 nM 018, biexponential fit
[6] = 100 μM GABA, 30 nM 018, biexponential fit
[7] = […] GABA, 10 nM 018, biexponential fit
[8] = […] GABA, 30 nM 018, biexponential fit, n = 5

## NCCCC(=O)O [GABA]
[1]; 100 μM GABA alone (0 nM 018), monoexponential fit, median
  t1 (ms), activation time constant: 35.0 ms
[1]; […] GABA alone (0 nM 018), monoexponential fit, median [25–75% quartiles]
  τ (ms), activation time constant: 174 [148;186]^a ms

## O=C(Nc1cccc(C(=O)N2CCC3(CCNCC3)CC2)c1)c1cccs1 [compound 018, N-(3-(3,9-diazaspiro[5.5]undecane-3-carbonyl)phenyl)thiophene-2-carboxamide]
[1]; 100 μM GABA, 0.1 nM 018, monoexponential fit
  t1: 37.1 ms
[1]; 100 μM GABA, 3 nM 018
  %A1: 81.5%
[1]; [4]
  t1: 29.6 ms
  t2: 1070 ms
[1]; 100 μM GABA, 10 nM 018
  %A1: 33.9%
[1]; [5]
  t1: 41.4 ms
  t2: 2170 ms
[1]; 100 μM GABA, 30 nM 018
  %A1: 7.5%
[1]; [6]
  t1: 34.0 ms
  t2: 3685 ms
[1]; […] GABA, 0.1 nM 018, monoexponential fit
  τ1 (ms): 119 [101;167]^a ms
[1]; […] GABA, 3 nM 018, biexponential fit
  τ2 (ms): 1090 [960;2180] — ms
[1]; […] GABA, 3 nM 018, biexponential fit, n = 7
  τ1 (ms): 147 [115;183] ms
[1]; […] GABA, 3 nM 018, fast component share of total current
  %A1: 83.8 — %
[1]; […] GABA, 3 nM 018, monoexponential fit, n = 3
  τ1 (ms): 123 [73.3;273] ms
[1]; […] GABA, 10 nM 018
  %A1: 39.6%
[1]; [7]
  τ1 (ms): 107 [57.5;180] ms
  τ2 (ms): 2170 [1970;3010] ms
[1]; […] GABA, 30 nM 018
  %A1: 8.3 — %
[1]; [8]
  τ1: 68.0 ms
  τ1 (ms): 68.0 [56.3;106] — ms
  τ2 (ms): 3780 [3160;4710] ms
[1]; […] GABA, 30 nM 018, monoexponential fit, n = 3
  τ2 (ms): 4270 [4140;4920] ms
[1]; […] GABA, 1000 nM 018, monoexponential fit
  τ2 (ms): 3780 [3330;5350]^a ms
[2]
  Papp B→A: 0.79 ×10⁻⁶ cm/s
MDR1 (P-glycoprotein)
  recovery: > 85%
[3]
  Ki: 20 nM
  pKi ± SEM: 7.71 ± 0.06

## CC(=O)Nc1cccc(C(=O)N2CCC3(CCNCC3)CC2)c1 [compound 2027, N-(3-(3,9-diazaspiro[5.5]undecane-3-carbonyl)phenyl)acetamide]
[2]
  Papp B→A: 0.67 ×10⁻⁶ cm/s
MDR1 (P-glycoprotein)
  recovery: > 85%
[3]
  Ki: 560 nM
  pKi ± SEM: 6.25 ± 0.06
